Like-named read-outs stand apart in the source and are kept apart here.
Columns and labels:
[1] = tested on: p52 (NF-kB2) nuclear translocation, HeLa cells; experiment: p52 (NF-kB2) nuclear translocation assay in HeLa cells (non-classical NF-kB signaling, anti-lymphotoxin beta receptor antibody stimulated); type: cell-based; conditions: Homo sapiens, 100 ng/mL anti-lymphotoxin beta receptor antibody for 5 hours, read-out: p52 HeLa Transloc Assay (IC50)
Method in brief: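 HeLa cells in 10% FBS medium were treated with compound (0.2% DMSO final) and stimulated with 100 ng/mL anti-lymphotoxin beta receptor antibody for 5 h. Fixed cells were immunostained for p52 and imaged with DRAQ5 nuclear stain. Translocation is the nuclear to cytoplasmic intensity ratio, and IC50 values are in micromolar.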

[2] = biological target: nuclear factor-kappa B (NF-kB)-inducing kinase (NIK) (Homo sapiens (Human), UniProt Q99558); experiment: NIK enzyme inhibition assay (Transcreener ADP, NIK ADP-FP); type: biochemical; conditions: purified NIK 0.5 nM, 10 μM ATP, fluorescence polarization; read-out: NIK ADP-FP (Ki μM)
[3] = tested on: REL-A (p65) nuclear translocation, HeLa cells; experiment: REL-A (p65) nuclear translocation assay in HeLa cells (classical NF-kB signaling, TNF-α stimulated); type: cell-based; conditions: Homo sapiens, 0.5 h
Method in brief: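 HeLa cells were exposed to test compounds at various concentrations (0.2% DMSO final) in medium with 10% fetal bovine serum for 4.5 hours, then stimulated for 30 minutes with 10 ng/mL TNF-α. After fixation in 4% paraformaldehyde, 0.1% Triton X-100 permeabilization and staining with 400 ng/mL anti-REL-A (p65) antibody, Alexa488 secondary and DRAQ5, Opera imaging gave nuclear-to-cytoplasmic signal ratios to calculate IC50.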

[4] = HeLa cells, 10 ng/mL TNF-α for 30 minutes, read-out: REL-A HeLa Transloc Assay (IC50)

nuclear factor-kappa B (NF-kB)-inducing kinase (NIK), sequence (Q99558 whole entry): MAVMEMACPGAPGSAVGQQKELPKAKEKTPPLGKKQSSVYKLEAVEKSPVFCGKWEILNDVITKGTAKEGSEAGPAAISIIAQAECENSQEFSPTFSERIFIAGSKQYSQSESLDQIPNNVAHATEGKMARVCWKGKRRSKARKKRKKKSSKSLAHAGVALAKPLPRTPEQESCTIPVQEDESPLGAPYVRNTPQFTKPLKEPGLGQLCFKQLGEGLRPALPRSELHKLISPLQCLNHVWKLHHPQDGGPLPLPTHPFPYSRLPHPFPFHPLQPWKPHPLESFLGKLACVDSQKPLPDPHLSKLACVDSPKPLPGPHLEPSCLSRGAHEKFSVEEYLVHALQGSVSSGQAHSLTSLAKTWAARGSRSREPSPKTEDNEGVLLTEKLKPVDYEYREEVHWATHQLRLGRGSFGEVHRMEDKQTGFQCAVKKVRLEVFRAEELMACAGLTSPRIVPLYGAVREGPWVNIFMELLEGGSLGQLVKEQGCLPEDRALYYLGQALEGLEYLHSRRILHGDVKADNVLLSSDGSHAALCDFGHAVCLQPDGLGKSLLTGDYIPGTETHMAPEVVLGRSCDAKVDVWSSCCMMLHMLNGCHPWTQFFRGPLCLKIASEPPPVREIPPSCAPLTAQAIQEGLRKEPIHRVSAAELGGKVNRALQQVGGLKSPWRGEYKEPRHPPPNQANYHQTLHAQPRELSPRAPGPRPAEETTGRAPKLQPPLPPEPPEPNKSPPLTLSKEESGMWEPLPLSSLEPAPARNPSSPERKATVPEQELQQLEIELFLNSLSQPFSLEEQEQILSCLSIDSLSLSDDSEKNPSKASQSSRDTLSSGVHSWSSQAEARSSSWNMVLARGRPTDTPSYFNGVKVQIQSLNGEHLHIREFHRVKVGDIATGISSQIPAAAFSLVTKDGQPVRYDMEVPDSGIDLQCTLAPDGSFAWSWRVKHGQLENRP

How did the IC50 [1] turn out when `NC(=O)c1nn(-c2cc(C#C[C@]3(O)CCc4cccnc43)ccn2)c2cc(F)ccc12` [Compound 72, 6-fluoro-1-[4-[2-[(7R)-7-hy-droxy-5,6-dihydrocyclopen-ta[b]pyridin-7-yl]ethynyl]-2-pyridyl]indazole-3-carbox-amide] was run?
The IC50 was 247 nM.

What about the Ki [2] of the same molecule?
The Ki was 0.14 nM.

What about the IC50 [3, 4] of the same molecule?
Its IC50 is 20 µM.

With `COc1cc(C#C[C@]2(O)CCN(C)C2=O)cc(-n2nc(C(N)=O)c3cccnc32)c1` [Compound 73, 1-[3-[2-[(3R)-3-hydroxy-1-methyl-2-oxo-pyrrolidin-3-yl]ethynyl]-5-methoxy-phe-nyl]pyrazolo[3,4-b]pyridine-3-carboxamide] as the molecule, how does the IC50 [1] read?
Its IC50 is 119 nM.

And the Ki [2]?
The Ki was 1.05 nM.

What about the IC50 [3, 4] of the same molecule?
Its IC50 is 20 µM.

For `CN1CC[C@@](O)(C#Cc2cccc(-n3nc(C(N)=O)c4cc(F)cnc43)c2)C1=O` [Compound 75, 5-fluoro-1-[3-[2-[(3R)-3-hy-droxy-1-methyl-2-oxo-pyrroli-din-3-yl]ethynyl]phenyl] pyrazolo[3,4-b]pyridine-3-carboxamide], which IC50 [1] is on record?
The IC50 was 56.9 nM.

What about the Ki [2] of the same molecule?
The Ki was 0.24 nM.

What about the IC50 [3, 4] of the same molecule?
Its IC50 is 20 µM.

`CN1CC[C@@](O)(C#Cc2cccc(-n3nc(C(N)=O)c4cnc(Cl)cc43)c2)C1=O` [Compound 76, 6-chloro-1-[3-[2-[(3R)-3-hy-droxy-1-methyl-2-oxo-pyrroli-din-3-yl]ethynyl]phenyl] pyrazolo[4,3-c]pyridine-3-carboxamide] was tested. Which IC50 [1] did it give?
Its IC50 is 41.2 nM.

And the Ki [2]?
Its Ki is 0.05 nM.

And the IC50 [3, 4]?
Its IC50 is 8 µM.

Which results are given for `Cc1c(Cl)c(C(N)=O)nn1-c1cc(C#C[C@]2(O)CCN(C)C2=O)ccn1` [Compound 78, 4-chloro-1-[4-[2-[(3R)-3-hy-droxy-1-methyl-2-oxo-pyrroli-din-3-yl]ethynyl]-2-pyri-dyl]-5-methyl-pyrazole-3-car-boxamide]?
IC50 [1]: 2710 nM; Ki [2]: 16.8 nM; IC50 [3, 4]: 20 µM

For `CN1CC[C@@](O)(C#Cc2cccc(-c3nc(C(N)=O)n4cccnc34)c2)C1=O` [Compound 85, 8-[3-[2-[(3R)-3-hydroxy-1-methyl-2-oxo-pyrrolidin-3-yl]ethynyl]phenyl]imidazo[1,5-a]pyrimidine-6-carboxamide], which IC50 [1] is on record?
Its IC50 is 38.6 nM.

What about the Ki [2] of the same molecule?
The Ki was 0.05 nM.

And the IC50 [3, 4]?
The IC50 was 19.2 µM.

What does the source list for `CN1CC[C@@](O)(C#Cc2cccc(-c3nc(C(N)=O)c4cccnn34)c2)C1=O` [Compound 86, 7-[3-[2-[(3R)-3-hydroxy-1-methyl-2-oxo-pyrrolidin-3-yl]ethynyl]phenyl]imidazo[1,5-b]pyridazine-5-carboxamide]?
IC50 [1]: 356 nM; Ki [2]: 0.73 nM; IC50 [3, 4]: 20 µM

Which IC50 [1] does the source give for `CN1CC[C@@](O)(C#Cc2cccc(-c3csc(C(N)=O)n3)c2)C1=O` [Compound 89, 4-[3-[2-[(3R)-3-hydroxy-1-methyl-2-oxo-pyrrolidin-3-yl]ethynyl]phenyl]thiazole-2-carboxamide] here?
The IC50 was 226 nM.

What about the Ki [2] of the same molecule?
The Ki was 1.65 nM.

What about the IC50 [3, 4] of the same molecule?
The IC50 was greater than 20 µM.

`CN1CC[C@@](O)(C#Cc2cccc(-c3nc(C(N)=O)n4ccc(C#N)cc34)c2)C1=O` [Compound 90, 7-cyano-1-[3-[2-[(3R)-3-hy-droxy-1-methyl-2-oxo-pyrroli-din-3-yl]ethynyl]phenyl] imidazo[1,5-a]pyridine-3-car-boxamide] was tested. Which IC50 [1] did it give?
Its IC50 is 63.4 nM.

And the Ki [2]?
The Ki was 0.05 nM.

What about the IC50 [3, 4] of the same molecule?
Its IC50 is 2 µM.

Which results are given for `CN1CC[C@@](O)(C#Cc2cccc(-c3nc(C(N)=O)n4ccc(C(F)(F)F)cc34)c2)C1=O` [Compound 91, 1-[3-[2-[(3R)-3-hydroxy-1-methyl-2-oxo-pyrrolidin-3-yl]ethynyl]phenyl]-7-(trifluoro-methyl)imidazo[1,5-a]pyri-dine-3-carboxamide]?
IC50 [1]: 18.9 nM; Ki [2]: 0.15 nM; IC50 [3, 4]: 20 µM

Which IC50 [1] does the source give for `CN1CC[C@@](O)(C#Cc2cccc(-c3nc(C(N)=O)n4ccncc34)c2)C1=O` [Compound 92, 1-[3-[2-[(3R)-3-hydroxy-1-methyl-2-oxo-pyrrolidin-3-yl]ethynyl]phenyl]imidazo[1,5-a]pyrazine-3-carboxamide] here?
The IC50 was 25.9 nM.

What about the Ki [2] of the same molecule?
The Ki was 0.37 nM.

And the IC50 [3, 4]?
The IC50 was 20 µM.

With `CN1CC[C@@](O)(C#Cc2cccc(-c3nc(C(N)=O)n4cc(Cl)ccc34)c2)C1=O` [Compound 93, 6-chloro-1-[3-[2-[(3R)-3-hy-droxy-1-methyl-2-oxo-pyrroli-din-3-yl]ethynyl]phenyl] imidazo[1,5-a]pyridine-3-carboxamide] as the molecule, how does the IC50 [1] read?
The IC50 was 15.3 nM.

And the Ki [2]?
The Ki was 0.06 nM.

What about the IC50 [3, 4] of the same molecule?
Its IC50 is 20 µM.

Which IC50 [1] does the source give for `CN1CC[C@@](O)(C#Cc2cccc(-c3nc(C(N)=O)n4ccc(Cl)cc34)c2)C1=O` [Compound 94, 7-chloro-1-[3-[2-[(3R)-3-hy-droxy-1-methyl-2-oxo-pyrroli-din-3-yl]ethynyl]phenyl] imidazo[1,5-a]pyridine-3-carboxamide] here?
The IC50 was 7.26 nM.

And the Ki [2]?
Its Ki is 0.05 nM.

And the IC50 [3, 4]?
The IC50 was 6.32 µM.

`CN1CC[C@@](O)(C#Cc2cccc(-c3ccn4c(C(N)=O)nc(-c5cccc(C#C[C@]6(O)CCN(C)C6=O)c5)c4c3)c2)C1=O` [Compound 95, 1,7-bis[3-[2-[(3R)-3-hydroxy-1-methyl-2-oxo-pyrrolidin-3-yl]ethynyl]phenyl]imi-dazo[1,5-a]pyridine-3-carbox-amide] was tested. Which IC50 [1] did it give?
The IC50 was 86.4 nM.

And the Ki [2]?
Its Ki is 0.05 nM.

What about the IC50 ([3]; HeLa, read-out: REL-A HeLa Transloc Assay (IC50) [μM]) of the same molecule?
The IC50 was 2 µM.

What does the source list for `CN1CC[C@@](O)(C#Cc2cccc(-c3nc(C(N)=O)n4ccc(OC5CCC5)cc34)c2)C1=O` [Compound 96, 7-(cyclobutoxy)-1-[3-[2-[(3R)-3-hydroxy-1-methyl-2-oxo-pyrrolidin-3-yl]ethynyl]phenyl]imidazo[1,5-a]pyridine-3-carboxamide]?
IC50 [1]: 60.3 nM; Ki [2]: 0.14 nM; IC50 [3, 4]: 20 µM

`COc1ccn2c(C(N)=O)nc(-c3cccc(C#C[C@]4(O)CCN(C)C4=O)c3)c2c1` [Compound 97, 1-[3-[2-[(3R)-3-hydroxy-1-methyl-2-oxo-pyrrolidin-3-yl]ethynyl]phenyl]-7-methoxy-imidazo[1,5-a]pyridine-3-carboxamide] was tested. Which IC50 [1] did it give?
Its IC50 is 6.6 nM.

What about the Ki [2] of the same molecule?
Its Ki is 0.05 nM.

What about the IC50 [3, 4] of the same molecule?
The IC50 was 1 µM.

Which results are given for `CN1CC[C@@](O)(C#Cc2cccc(-c3nc(C(N)=O)n4ccc(CN5CCOCC5)cc34)c2)C1=O` [Compound 99, 1-[3-[2-[(3R)-3-hydroxy-1-methyl-2-oxo-pyrrolidin-3-yl]ethynyl]phenyl]-7-(morpho-linomethyl)imidazo[1,5-a]pyridine-3-carboxamide]?
IC50 [1]: 231 nM; Ki [2]: 1.52 nM; IC50 [3, 4]: 2 µM

What does the source list for `CN1CC[C@@](O)(C#Cc2cccc(-c3nc(C(N)=O)n4cc(CN5CCOCC5)ccc34)c2)C1=O` [Compound 100, 1-[3-[2-[(3R)-3-hydroxy-1-methyl-2-oxo-pyrrolidin-3-yl]ethynyl]phenyl]-6-(morpho-linomethyl)imidazo[1,5-a]pyridine-3-carboxamide]?
IC50 [1]: 156 nM; Ki [2]: 1.65 nM; IC50 [3, 4]: 2 µM

Which results are given for `CN1CC[C@@](O)(C#Cc2cccc(-n3nc(C(N)=O)c4cc(-c5ccn(C)n5)ccc43)c2)C1=O` [Compound 101, 1-[3-[2-[(3R)-3-hydroxy-1-methyl-2-oxo-pyrrolidin-3-yl]ethynyl]phenyl]-5-(1-meth-ylpyrazol-3-yl)indazole-3-carboxamide]?
IC50 [1]: 31.2 nM; Ki [2]: 0.06 nM; IC50 [3, 4]: 6.32 µM

Which IC50 [1] does the source give for `CN1CC[C@@](O)(C#Cc2cccc(-n3nc(C(N)=O)c4cc(-c5cnn(C)c5)cnc43)c2)C1=O` [Compound 104, 1-[3-[2-[(3R)-3-hydroxy-1-methyl-2-oxo-pyrrolidin-3-yl]ethynyl]phenyl]-5-(1-meth-ylpyrazol-4-yl)pyrazolo[3,4-b]pyridine-3-carboxamide] here?
Its IC50 is 26.7 nM.

And the Ki [2]?
The Ki was 0.1 nM.

What about the IC50 [3, 4] of the same molecule?
Its IC50 is 2 µM.

What does the source list for `C[C@@H]1CCc2c1c(C(N)=O)nn2-c1cccc(C#C[C@]2(O)CCN(C)C2=O)c1` [Compound 109, (4R)-1-[3-[2-[(3R)-3-hydroxy-1-methyl-2-oxo-pyrrolidin-3-yl]ethynyl]phenyl]-4-methyl-5,6-dihydro-4H-cyclo-penta[c]pyrazole-3-carbox-amide]?
IC50 [1]: 209 nM; Ki [2]: 9.58 nM; IC50 [3, 4]: 20 µM

With `C[C@H]1CCc2c1c(C(N)=O)nn2-c1cccc(C#C[C@]2(O)CCN(C)C2=O)c1` [Compound 110, (4S)-1-[3-[2-[(3R)-3-hydroxy-1-methyl-2-oxo-pyrrolidin-3-yl]ethynyl]phenyl]-4-methyl-5,6-dihydro-4H-cyclo-penta[c]pyrazole-3-carbox-amide] as the molecule, how does the IC50 [1] read?
Its IC50 is 244 nM.

And the Ki [2]?
Its Ki is 0.55 nM.

And the IC50 [3, 4]?
Its IC50 is 20 µM.

What does the source list for `CN1CC[C@@](O)(C#Cc2cc(C#N)cc(-n3nc(C(N)=O)c4cccnc43)c2)C1=O` [Compound 111, 1-[3-cyano-5-[2-[(3R)-3-hy-droxy-1-methyl-2-oxo-pyrroli-din-3-yl]ethynyl]phenyl] pyrazolo[3,4-b]pyridine-3-carboxamide]?
IC50 [1]: 701 nM; Ki [2]: 4.86 nM; IC50 [3, 4]: 20 µM

How did the IC50 [1] turn out when `CN1CC[C@@](O)(C#Cc2cccc(-n3nc(C(N)=O)c4cc(-c5cnn(CCO)c5)ccc43)c2)C1=O` [Compound 113, 5-[1-(2-hydroxyethyl)pyrazol-4-yl]-1-[3-[2-[(3R)-3-hy-droxy-1-methyl-2-oxo-pyrroli-din-3-yl]ethynyl]phenyl] indazole-3-carboxamide] was run?
Its IC50 is 440 nM.

And the Ki [2]?
Its Ki is 0.07 nM.

And the IC50 [3, 4]?
The IC50 was 20 µM.

For `CN1CC[C@@](O)(C#Cc2cccc(-n3nc(C(N)=O)c4cncnc43)c2)C1=O` [Compound 114, 1-[3-[2-[(3R)-3-hydroxy-1-methyl-2-oxo-pyrrolidin-3-yl]ethynyl]phenyl]pyrazolo [3,4-d]pyrimidine-3-carbox-amide], which IC50 [1] is on record?
Its IC50 is 39.4 nM.

And the Ki [2]?
The Ki was 0.19 nM.

What about the IC50 [3, 4] of the same molecule?
Its IC50 is 20 µM.

— patent publication US9605005B2, “Alkynyl alcohols and methods of use” (Genentech, Inc., priority 2013, dated 2017)
